The values that follow come from PMC3488456 (Bioorganic & medicinal chemistry letters, 2012).

A short description of one series: Rat pharmacokinetics. In kind it is in vivo, Sprague-Dawley rats. Particulars: for clearance: Sprague-Dawley, rat, in vivo, iv, 1 mg/kg.
For a further series, the system named is FXR. Particulars: same FRET assay; cited from earlier work.
A short description of the next series: Mouse brain penetration. In kind it is in vivo, C57Bl6 mice. Particulars: mice.
A further series concerns LRH1. Particulars: same FRET assay; cited from earlier work.
For a further series, the system named is RORα. Particulars: same FRET assay; cited from earlier work.
Another series deals with SF1. Particulars: same FRET assay; cited from earlier work.
Another series has as its system LXRα. Particulars: reporter-gene assay; cited from earlier work.
The subject of a further series is LXRβ. Particulars: reporter-gene assay; cited from earlier work.
Another series addresses T1, Rev-erbα (Homo sapiens, UniProt P20393).
T1 sequence (P20393 1-614): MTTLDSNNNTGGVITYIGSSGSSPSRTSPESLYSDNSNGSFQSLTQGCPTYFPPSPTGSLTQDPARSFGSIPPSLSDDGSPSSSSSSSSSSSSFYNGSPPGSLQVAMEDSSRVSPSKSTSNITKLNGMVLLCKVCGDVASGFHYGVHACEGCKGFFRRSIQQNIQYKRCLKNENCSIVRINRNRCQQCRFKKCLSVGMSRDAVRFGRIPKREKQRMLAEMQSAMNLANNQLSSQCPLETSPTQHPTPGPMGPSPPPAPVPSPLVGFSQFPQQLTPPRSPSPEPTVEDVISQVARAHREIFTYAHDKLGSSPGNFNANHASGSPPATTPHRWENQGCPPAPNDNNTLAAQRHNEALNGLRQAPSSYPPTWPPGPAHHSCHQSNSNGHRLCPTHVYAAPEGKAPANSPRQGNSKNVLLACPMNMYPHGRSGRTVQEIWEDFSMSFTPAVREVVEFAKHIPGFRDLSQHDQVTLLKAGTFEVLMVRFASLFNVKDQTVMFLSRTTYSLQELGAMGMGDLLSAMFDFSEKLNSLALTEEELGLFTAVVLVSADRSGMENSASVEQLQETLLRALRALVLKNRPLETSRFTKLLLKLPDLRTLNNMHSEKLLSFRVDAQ
In kind it is cell-based.

In the case of `CC(C)(C)OC(=O)CN(Cc1ccc(Cl)cc1)Cc1ccc([N+](=O)[O-])s1` [Compound 1], the clearance (as a rule, the rate of elimination divided by the concentration) in the series “Rat pharmacokinetics” stood at 353 mL/min/kg. For the same molecule, in the series “Rat pharmacokinetics” (rats), the “oral bioavailability / oral absorption (in words)” value was “poor oral bioavailability”, the “plasma clearance (in words)” value was “very high plasma clearance” and the “volume of distribution (in words)” value is “high volume of distribution”. In the series “Rat pharmacokinetics” (rodent), the “rodent pharmacokinetics (in words)” value is “poor”. The “activity on FXR” value in the series with FXR is “no activity”. Further, the “brain penetration (in words)” value in the series “Mouse brain penetration” was “good brain penetration”. In addition, the “activity on LRH1” value with LRH1 is “no activity”. In addition, the “activity on RORα” value with RORα was “no activity”. Besides, the “activity on SF1” value with SF1 is given as “no activity”. Besides, the “activity on LXRα” value with LXRα is listed as “no activity”. Also, in the series with LXRβ, the “activity on LXRβ” value was “no activity”.
Consider `CCOC(=O)C1Cc2ccccc2CN1C(=O)c1ccno1` (centres unmarked) [Compound 3n], for which the EC50 (as a rule, the midpoint of the concentration-response curve) at Rev-erbα was found to be 2500 nM.
In “Rat pharmacokinetics”, `O=C(c1cccc2ccccc12)N1Cc2ccccc2CC1COCc1ccccc1` (centres unmarked) [Compound 6d] showed a clearance of 39 mL/min/kg. Moreover, the “oral bioavailability / oral absorption (in words)” value in the series “Rat pharmacokinetics” (rats) is “poor oral absorption”.
On the same counts, the results for `O=C(c1cccc2ccccc12)N1Cc2ccccc2CC1CNCc1ccccc1` (centres unmarked) [Compound 7d] are 43 mL/min/kg and “poor oral absorption”.
